Consider one molecule from patent US11571418B2, “Platinum compounds that inhibit constitutive STAT3 signaling and induce cell cycle arrest and apoptosis of malignant cells” (H. LEE MOFFITT CANCER CENTER AND RESEARCH INSTITUTE, INC., priority 2011, dated 2023).

SMILES strings stand for the structures. pIC50: −log10 of the molar value.

The target of one assay is T1, Stat1 (Mus musculus, UniProt P42225).
T1 construct: Nuclear extract preparation from NIH3T3 stimulated by rhIL-6, NIH3T3/hEGFR stimulated by rhEGF; endogenous in cells; host or cells: NIH3T3/hEGFR fibroblasts stimulated with rhEGF (nuclear extract)
T1 sequence (P42225 2-749 limits assumed): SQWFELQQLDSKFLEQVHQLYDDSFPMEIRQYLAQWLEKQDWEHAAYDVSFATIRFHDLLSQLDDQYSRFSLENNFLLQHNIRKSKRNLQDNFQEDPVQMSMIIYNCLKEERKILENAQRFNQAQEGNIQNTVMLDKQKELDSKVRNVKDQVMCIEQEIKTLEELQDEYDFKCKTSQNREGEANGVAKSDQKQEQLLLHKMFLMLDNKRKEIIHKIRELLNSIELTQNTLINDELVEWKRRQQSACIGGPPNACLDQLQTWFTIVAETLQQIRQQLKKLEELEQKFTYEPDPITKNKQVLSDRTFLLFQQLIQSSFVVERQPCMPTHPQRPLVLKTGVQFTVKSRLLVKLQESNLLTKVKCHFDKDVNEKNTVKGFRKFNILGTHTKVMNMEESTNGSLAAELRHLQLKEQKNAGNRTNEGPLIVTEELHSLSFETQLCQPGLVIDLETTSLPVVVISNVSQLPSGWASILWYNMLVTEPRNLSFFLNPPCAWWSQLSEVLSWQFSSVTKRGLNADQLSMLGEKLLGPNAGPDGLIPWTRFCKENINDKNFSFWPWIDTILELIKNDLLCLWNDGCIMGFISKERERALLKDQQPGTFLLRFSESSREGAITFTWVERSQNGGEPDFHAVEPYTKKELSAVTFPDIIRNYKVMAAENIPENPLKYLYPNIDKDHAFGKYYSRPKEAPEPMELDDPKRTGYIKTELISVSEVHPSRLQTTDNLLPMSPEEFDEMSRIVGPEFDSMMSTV
Kind of assay: In vitro Stat1 DNA-binding activity assay, EMSA with hSIE or MGFe probe. Here is the method:
(§1) FIGS. 1A-1E. Inhibition of in vitro Stat3 DNA-binding activity by a platinum complex. Nuclear extracts or cell lysates containing activated Stat1, Stat3 and Stat5, or E2F1 prepared from NIH3T3/hEGFR that are stimulated with EGF or Sf-9 insect cells that are infected with baculovirus expressing Stat1, Stat3, Stat5, or E2F1, respectively, were treated with or without the indicated concentrations of platinum complex, PLATINUM-401 or Cisplatin, for 30 min at room temperature prior to incubation with radiolabeled oligonucleotide probes, and subjected to EMSA analysis. (FIG. 1A) (i) Stat1 and Stat3 binding activities to hSIE probe, (ii) Stat1 and Stat5 binding activities to MGFe probe, and (iii) plot of % oligonucleotide probe-STAT:STAT complexes versus concentration of PLATINUM-401. […] Positions of STAT: STAT-DNA complexes in gel are labeled. In (A) to (C), the control lanes represent DMSO (vehicle)-treatment.
Nuclear extract preparation and gel shift assays—Nuclear extract preparation from NIH3T3 stimulated by rhIL-6, NIH3T3/hEGFR stimulated by rhEGF, v-Src-transformed fibroblasts (NIH3T3/v-Src) or tumor cell lines and electrophoretic mobility shift assay were carried out as previously described (Turkson et al., 1998; Garcia et al., 1997; Yu et al., 1995). The ^32P-labeled oligonucleotide probes used are hSIE (high affinity sis-inducible element from the c-fos gene, m67 variant, 5′-[…]) (SEQ ID NO:1) that binds Stat1 and Stat3 (Garcia et al., 1997; Wagner et al., 1990) and MGFe (mammary gland factor element from the bovine β-casein gene promoter, 5′-AGATTTCTAGGAATTCAA) (SEQ ID NO:2) for Stat1 and Stat5 binding (49,50). Except where indicated, inhibitor compound was pre-incubated with the nuclear extract for 30 min at room temperature prior to incubation with radiolabeled probe.
Compounds from the NCI 2000 diversity set were screened for inhibition of Stat3 signaling in an in vitro DNA-binding activity assay based on analysis by electrophoretic mobility shift assay (EMSA). […]

In assay [1] the test system is IL-6-induced Stat3 activation in NIH3T3. As to the kind of experiment: IL-6-induced Stat3 activation in NIH3T3 (EMSA of nuclear extracts). Format: cell-based, mouse. Here is the method: FIGS. 3A-3D. Inhibition of Stat3-mediated gene expression by PLATINUM-401. (FIG. 3A) and (FIG. 3B) v-Src-transformed mouse fibroblasts that stably express Stat3-dependent (NIH3T3/v-Src/pLucTKS3) and Stat3-independent (NIH3T3/v-Src/pRLSRE) luciferase reporters or β-galactosidase (β-gal), as well as normal mouse fibroblast (NIH3T3) transiently transfected with pLucTKS3, pGL2-VEGF-Luc, NFkB-Luc or pLucSRE together with or without v-Src were treated with or without PLATINUM-401 for 48 h. Cytosolic extracts were then prepared from cells for luciferase and […] activities measurements. Values are the means and S.D. of three to five independent assays; (FIG. 3C) and (FIG. 3D) Nuclear extracts or whole cell lysates were prepared from IL-6-stimulated normal mouse fibroblasts (NIH3T3) or their v-Src-transformed counterpart (NIH3T3/v-Src) that are treated with or without PLATINUM-401 for different times. Samples of equal total proteins were then subjected to in vitro DNA-binding activity and EMSA analysis or for SDS-PAGE and Western blot analysis for phosphorylated and total Stat3. […]
To further investigate the activities of PLATINUM-401, the inventors treated malignant cells and measured effects on Stat3 signaling. […]

The next assay deals with T2, E2F1 (Homo sapiens, UniProt Q01094).
T2 construct: made in house; host or cells: Sf-9 insect cells infected with baculovirus
Kind of assay: In vitro E2F1 DNA-binding activity assay, EMSA with DHFR promoter probe. The following applies: cell lysates pre-incubated with compound before DHFR promoter probe. Here is the method:
as §1
In control studies, the effect of PLATINUM-401 was evaluated on the DNA-binding activity of the E2F1 protein that is unrelated to STATs.

T2 sequence (Q01094 whole entry, species assumed): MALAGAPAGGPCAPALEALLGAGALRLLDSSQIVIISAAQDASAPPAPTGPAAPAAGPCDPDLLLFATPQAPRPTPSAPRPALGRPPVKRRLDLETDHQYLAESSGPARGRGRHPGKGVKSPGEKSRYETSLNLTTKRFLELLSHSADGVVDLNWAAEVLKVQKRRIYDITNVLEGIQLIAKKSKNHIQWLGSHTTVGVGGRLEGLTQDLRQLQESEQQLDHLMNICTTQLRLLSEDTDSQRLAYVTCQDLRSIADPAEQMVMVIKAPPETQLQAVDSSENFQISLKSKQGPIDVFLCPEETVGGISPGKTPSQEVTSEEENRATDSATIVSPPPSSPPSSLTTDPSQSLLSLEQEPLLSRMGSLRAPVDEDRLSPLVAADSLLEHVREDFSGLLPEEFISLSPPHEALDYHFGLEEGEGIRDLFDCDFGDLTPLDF

The molecule `CC(O)CN1CCN(CC(C)O)CC1` (centres unmarked) [PLATINUM-401] showed a pIC50 at Stat1 of 5.39. For the same molecule, the “effect on DNA-binding activity of Stat1:Stat1 homodimer” value on Stat1 (pre-incubated 30 min before probe) is listed as “to a lesser extent”. The “time at which IL-6-induced Stat3 activation was inhibited” value in assay [1] (IL-6-stimulated NIH3T3) was at most 30 min. For the same molecule, in assay [1] (time- and dose-dependent), the “ligand-induced activation of Stat3 DNA-binding activity” value was “inhibits”. The “effect on E2F1 DNA-binding activity” value on E2F1 is listed as “no significant effect”.
